Results reported in publication PMC3447335, “Evaluation of Pseudopteroxazole and Pseudopterosin Derivatives against Mycobacterium tuberculosis and Other Pathogens” (Marine Drugs, 2012).
≈ marks a conversion by molar mass, not a printed value.

Legend:
Assay in all cases: microbe, parasite or virus in culture
Assay type in all cases: cell-based
[1] = system: M. tuberculosis H37Rv isogenic strain resistant to rifampin (RMPr); conditions: Mycobacterium tuberculosis, read-out: MABA MIC RMPr
[2] = system: M. tuberculosis H37Rv isogenic strain resistant to isoniazid (INHr); conditions: Mycobacterium tuberculosis, read-out: MABA MIC INHr
[3] = system: M. tuberculosis H37Rv isogenic strain resistant to streptomycin (SMr); conditions: Mycobacterium tuberculosis, read-out: MABA MIC SMr
[4] = system: M. tuberculosis H37Rv isogenic strain resistant to kanamycin (KMr); conditions: Mycobacterium tuberculosis, read-out: MABA MIC KMr
[5] = system: M. tuberculosis H37Rv isogenic strain resistant to cycloserine (CSr); conditions: Mycobacterium tuberculosis, read-out: MABA MIC CSr
[6] = system: M. tuberculosis H37Rv isogenic strain resistant to moxifloxacin (MOXr); conditions: Mycobacterium tuberculosis, read-out: MABA MIC MOXr

SMILES	MIC [1] [µg/mL]	MIC [2] [µg/mL]	MIC [3] [µg/mL]	MIC [4] [µg/mL]	MIC [5] [µg/mL]	MIC [6] [µg/mL]
CC(C)=C[C@@H]1C[C@H](C)[C@H]2CC[C@H](C)c3c2c1c(C)c1ncoc31 [Compound 1, pseudopteroxazole]	8 (≈ 25.9 µM)	8 (≈ 25.9 µM)	14 (≈ 45.2 µM)	16 (≈ 51.7 µM)	14 (≈ 45.2 µM)	8 (≈ 25.9 µM)
NNC(=O)c1ccncc1 [Isoniazid]	0.12 (≈ 0.875 µM)	> 1.1	0.13 (≈ 0.948 µM)	0.13 (≈ 0.948 µM)	0.12 (≈ 0.875 µM)	0.03 (≈ 0.219 µM)
CO[C@H]1/C=C/O[C@@]2(C)Oc3c(C)c(O)c4c(O)c(c(/C=N/N5CCN(C)CC5)c(O)c4c3C2=O)NC(=O)/C(C)=C\C=C\[C@H](C)[C@H](O)[C@@H](C)[C@@H](O)[C@@H](C)[C@H](OC(C)=O)[C@@H]1C [Rifampin, reference compound]	> 3.3	0.02 (≈ 0.0243 µM)	0.08 (≈ 0.0972 µM)	0.02 (≈ 0.0243 µM)	0.01 (≈ 0.0122 µM)	0.02 (≈ 0.0243 µM)
